The text below walks through data of PMC11367099 (Heliyon, 2024).

Some targets named below: PDE8A1 (Homo sapiens, UniProt O60658); PDE5A (Homo sapiens, UniProt O76074); PDE10A2 (Homo sapiens, UniProt Q9Y233); PDE3A (Homo sapiens, UniProt Q14432).
Common to all, as to assay: Fluorescein-AMP
Common to all, as to type: biochemical

Sequence of PDE3A (Q14432 whole entry): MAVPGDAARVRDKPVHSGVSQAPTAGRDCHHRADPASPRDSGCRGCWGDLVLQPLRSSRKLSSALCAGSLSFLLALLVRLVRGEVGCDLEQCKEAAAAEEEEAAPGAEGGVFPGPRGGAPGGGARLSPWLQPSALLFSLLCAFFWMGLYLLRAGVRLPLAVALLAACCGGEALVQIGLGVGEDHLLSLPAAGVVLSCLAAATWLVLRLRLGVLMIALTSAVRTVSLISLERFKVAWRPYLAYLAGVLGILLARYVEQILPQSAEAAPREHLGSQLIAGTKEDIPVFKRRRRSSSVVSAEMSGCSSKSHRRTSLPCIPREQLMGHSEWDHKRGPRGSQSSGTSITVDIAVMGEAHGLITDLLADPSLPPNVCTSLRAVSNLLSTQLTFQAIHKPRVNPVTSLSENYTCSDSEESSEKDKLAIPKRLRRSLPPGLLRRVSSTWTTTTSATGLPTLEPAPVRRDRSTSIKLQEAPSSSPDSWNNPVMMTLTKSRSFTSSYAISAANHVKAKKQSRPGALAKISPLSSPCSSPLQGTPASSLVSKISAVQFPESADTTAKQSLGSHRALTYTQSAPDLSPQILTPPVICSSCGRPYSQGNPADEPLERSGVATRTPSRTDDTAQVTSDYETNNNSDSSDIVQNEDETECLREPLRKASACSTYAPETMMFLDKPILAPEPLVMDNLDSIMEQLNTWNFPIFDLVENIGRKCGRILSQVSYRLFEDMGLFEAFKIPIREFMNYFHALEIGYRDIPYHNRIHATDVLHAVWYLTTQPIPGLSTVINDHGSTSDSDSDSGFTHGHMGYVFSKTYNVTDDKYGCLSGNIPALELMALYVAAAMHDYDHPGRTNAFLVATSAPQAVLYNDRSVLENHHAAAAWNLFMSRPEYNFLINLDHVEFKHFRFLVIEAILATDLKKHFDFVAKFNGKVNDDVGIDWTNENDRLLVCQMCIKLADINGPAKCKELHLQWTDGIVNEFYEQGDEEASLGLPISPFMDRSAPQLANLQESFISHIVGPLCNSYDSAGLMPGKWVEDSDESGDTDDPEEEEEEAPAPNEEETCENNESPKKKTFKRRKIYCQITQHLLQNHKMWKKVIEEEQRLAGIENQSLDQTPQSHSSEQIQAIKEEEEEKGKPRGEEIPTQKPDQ
Sequence of PDE8A1 (O60658 whole entry): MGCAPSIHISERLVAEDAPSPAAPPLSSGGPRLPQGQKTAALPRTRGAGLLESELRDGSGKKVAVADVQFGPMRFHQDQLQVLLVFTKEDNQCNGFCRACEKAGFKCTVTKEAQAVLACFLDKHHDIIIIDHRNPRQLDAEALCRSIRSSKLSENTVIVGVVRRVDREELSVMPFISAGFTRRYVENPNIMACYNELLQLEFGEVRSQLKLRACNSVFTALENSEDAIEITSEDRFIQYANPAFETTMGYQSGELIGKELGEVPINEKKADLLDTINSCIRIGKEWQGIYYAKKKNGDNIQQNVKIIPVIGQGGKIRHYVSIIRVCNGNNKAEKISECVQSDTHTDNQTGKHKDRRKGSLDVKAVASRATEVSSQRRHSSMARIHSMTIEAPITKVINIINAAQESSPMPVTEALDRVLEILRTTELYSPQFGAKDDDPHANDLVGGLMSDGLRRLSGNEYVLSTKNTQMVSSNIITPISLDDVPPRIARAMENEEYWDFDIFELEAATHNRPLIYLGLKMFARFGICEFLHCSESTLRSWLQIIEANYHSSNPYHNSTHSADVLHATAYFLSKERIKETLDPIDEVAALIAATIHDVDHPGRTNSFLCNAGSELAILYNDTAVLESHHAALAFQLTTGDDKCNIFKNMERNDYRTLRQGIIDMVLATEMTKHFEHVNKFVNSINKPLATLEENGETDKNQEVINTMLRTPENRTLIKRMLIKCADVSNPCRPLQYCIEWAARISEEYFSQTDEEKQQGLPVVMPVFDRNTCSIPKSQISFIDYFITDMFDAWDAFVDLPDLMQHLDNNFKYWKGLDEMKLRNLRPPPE
Sequence of PDE10A2 (Q9Y233 267-1055): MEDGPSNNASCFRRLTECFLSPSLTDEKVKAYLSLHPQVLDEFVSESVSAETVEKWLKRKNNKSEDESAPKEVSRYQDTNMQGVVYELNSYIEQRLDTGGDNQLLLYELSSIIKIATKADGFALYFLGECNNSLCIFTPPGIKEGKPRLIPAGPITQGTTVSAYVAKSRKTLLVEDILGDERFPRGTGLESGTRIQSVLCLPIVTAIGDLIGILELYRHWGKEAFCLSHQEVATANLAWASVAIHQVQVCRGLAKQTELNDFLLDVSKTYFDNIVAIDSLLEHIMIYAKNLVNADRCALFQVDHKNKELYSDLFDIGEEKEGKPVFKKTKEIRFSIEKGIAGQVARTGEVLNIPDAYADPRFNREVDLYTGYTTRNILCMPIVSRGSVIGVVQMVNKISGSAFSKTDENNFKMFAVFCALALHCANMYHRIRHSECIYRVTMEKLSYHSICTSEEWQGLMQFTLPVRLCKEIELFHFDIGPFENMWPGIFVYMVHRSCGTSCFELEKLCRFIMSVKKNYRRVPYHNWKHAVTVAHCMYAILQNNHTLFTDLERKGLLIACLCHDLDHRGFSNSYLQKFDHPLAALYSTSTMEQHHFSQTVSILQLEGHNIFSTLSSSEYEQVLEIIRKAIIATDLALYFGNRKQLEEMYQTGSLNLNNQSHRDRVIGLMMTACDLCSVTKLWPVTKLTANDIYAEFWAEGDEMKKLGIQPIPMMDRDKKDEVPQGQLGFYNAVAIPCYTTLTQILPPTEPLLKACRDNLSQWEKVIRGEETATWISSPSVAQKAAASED

For `COc1cc(-c2cc(=O)c3c(O)c(OC)c(O)c(OC)c3o2)ccc1O` [Sudachitin], the IC50 (commonly the concentration that inhibits the measured activity by half) against PDE8A1 was 26.3 µM; at PDE5A, 6.54 µM; on PDE10A2 it was 9.99 µM; at PDE3A it was 5.19 µM.
